Source: PMC7497180 (Chembiochem, 2020)
“Also recorded” adds a separate entry of the source.

Experiments:
THP1^wt cells [1] = experiment: Colony forming unit
THP1‐NTR^+ cells [2] = experiment: CD86-based cell assay; conditions: for EC50: 72 h, read-out: THP1‐NTR^+ CD86^+ EC50; for Selectivity window THP1^wt / THP1‐NTR^+: CD86 EC50 ratio
THP1‐NTR^+ cells [3] = experiment: MTS cell viability assay, NTR-expressing cells; format: cell-based
THP1‐NTR^+ cells [4] = experiment: Colony forming unit; format: cell-based; conditions: for EC50: read-out: THP1‐NTR^+ CFU EC50; for Selectivity window THP1^wt / THP1‐NTR^+: CFU EC50 ratio
THP1^wt cells [5] = experiment: MTS cell viability assay, non-transfected cells; format: cell-based
THP1^wt cells [6] = experiment: CD86-based cell assay; conditions: 72 h, read-out: THP1^wt CD86^+ EC50
LSD1 = LSD1 (Homo sapiens, UniProt O60341); conditions: cited from earlier work
THP1^wt cells [7] = experiment: Luminescent measurement of NTR activity in cells, non-transfected; format: cell-based; conditions: 25 μM, 60 min
THP1‐NTR^+ cells [8] = experiment: Luminescent measurement of NTR activity in cells, NTR-expressing; format: cell-based; conditions: 25 μM, 60 min
recombinant NTR = experiment: Luminescent probe activation by recombinant NTR in vitro; format: biochemical, E. coli; conditions: low NTR concentrations (18–30 nM)
[9] = biological target: T1, nitroreductase NfsB (NTR) (Escherichia coli, UniProt P38489); format: biochemical, E. coli
T1 sequence (P38489 1-217): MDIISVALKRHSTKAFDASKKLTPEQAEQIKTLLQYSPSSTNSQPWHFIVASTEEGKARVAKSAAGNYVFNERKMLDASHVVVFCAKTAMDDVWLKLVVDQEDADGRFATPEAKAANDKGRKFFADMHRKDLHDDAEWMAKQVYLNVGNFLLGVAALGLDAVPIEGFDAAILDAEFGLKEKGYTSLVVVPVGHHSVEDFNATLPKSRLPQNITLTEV

[10] = test system: mixtures of the cell lines THP1^wt and THP1‐NTR^+; experiment: Bystander effect in the CFU assay; format: cell-based; conditions: at 1.0 μM
[11] = 240 h, read-out: THP1^wt CFU EC50
[12] = read-out: THP1^wt CFU EC50, 10 days

| Molecule | EC50 (THP1^wt cells [1]; [11]) | EC50 (THP1‐NTR^+ cells [2]; Homo sapiens) | cytotoxicity in THP1‐NTR^+ (in words) (THP1‐NTR^+ cells [3]) | EC50 (THP1‐NTR^+ cells [4]; 240 h) | cytotoxicity in THP1^wt (in words) (THP1^wt cells [5]) | EC50 (THP1^wt cells [6]; Homo sapiens) | Selectivity window THP1^wt / THP1‐NTR^+ (THP1‐NTR^+ cells [2]) | Selectivity window THP1^wt / THP1‐NTR^+ (THP1‐NTR^+ cells [4]) | probe conversion in nontransfected THP1^wt cells (in words) (THP1^wt cells [7]) | probe conversion in NTR-expressing THP1 cells (in words) (THP1‐NTR^+ cells [8]) | EC50 (THP1^wt cells [1]; [12]) | EC50 (THP1‐NTR^+ cells [4]; 10 days) | EC50 (THP1^wt cells [6]; FACS) | also measured |
| --- | --- | --- | --- | --- | --- | --- | --- | --- | --- | --- | --- | --- | --- | --- |
| COc1ncccc1CN[C@@H]1C[C@H]1c1ccccc1 (racemic) [1 a, trans‐N‐((2‐Methoxypyridin‐3‐yl) methyl)‐2‐phenylcyclopropan‐1‐amine, reference compound] | 60 ± 20 nM | 4.1 ± 0.4 nM | no cytotoxic effect | 40 ± 10 nM | no cytotoxic effect | 3 ± 0.3 nM |  |  |  |  |  |  |  | EC50 (THP1^wt cells [1]; read-out: colony formation EC50): 68 ± 12 nM |
| COc1ncccc1CN[C@H]1[C@@H](C)[C@@H]1c1ccccc1 (relative stereo) [2 a, (1S*,2S*,3R*)‐N‐((2‐Methoxypyridin‐3‐yl) methyl)‐2‐methyl‐3‐phenylcyclo propan‐1‐amine] | 45500 ± 3200 nM | 15300 nM | no cytotoxic effect | 32400 ± 1700 nM | no cytotoxic effect | 17600 nM | 1±1 | 1±1 |  |  |  |  |  | THP1‐NTR^+ CD86^+ cells (THP1‐NTR^+ cells [2]; at 10 μM): 34%; LSD1 inhibition (in words) (LSD1): lack inhibitory activity on LSD1 in the low micromolar range; also recorded: inactive on LSD1 below 10 μM |
| N#Cc1nc2ccc(OCc3ccc([N+](=O)[O-])s3)cc2s1 [compound 4, 6‐((5‐Nitrothiophen‐2‐yl)methoxy)benzo[d]thiazole‐2‐carbonitrile] |  |  |  |  |  |  |  |  | no activation | converted to luciferin |  |  |  |  |
| CN(CCN(C)C(=O)Oc1ccc2nc(C#N)sc2c1)C(=O)OCc1ccc([N+](=O)[O-])s1 [compound 5, 2‐Cyanobenzo[d]thiazol‐6‐yl ((5‐nitrothiophen‐2‐yl)methyl) ethane‐1,2‐diylbis(methyl carbamate)] |  |  |  |  |  |  |  |  | no activation | converted to luciferin |  |  |  | factor by which conversion exceeds that of probe 4 (recombinant NTR): at least 5 |
| (1‐Methyl‐2‐nitro‐1H‐imidazol‐5‐yl)methyl((2‐methoxypyridin‐3‐yl)methyl) ((1S*,2R*)‐2‐phenylcyclopropyl)carbamate [1 f] |  |  | cytotoxic effects |  |  |  | 66±8 | 14±4 |  |  | 4400 ± 700 nM | 330 ± 70 nM | 376 ± 17 nM | effect on colony formation in THP1^wt (in words) (THP1^wt cells [1]): no effect in THP1^wt up to 2 μM; EC50 (THP1‐NTR^+ cells [2]; FACS): 5.7 ± 0.4 nM; % conversion to 1a (fragmentation) ([9]; HPLC of Fmoc derivative 3 after NTR reaction, Figure 3C): 59.3%; factor of prodrug fragmentation relative to 4-nitrobenzyl 1 b ([9]; calculated from fragmentation data, Figure 3D): 17 x; bystander effect in the CFU assay [10]: no bystander effect |
| (1‐Methyl‐2‐nitro‐1H‐imidazol‐5‐yl)methyl((2‐methoxypyridin‐3‐yl)methyl) ((1S*,2S*,3R*)‐2‐methyl‐3‐phenylcyclopropyl)carbamate [2 f] |  |  | cytotoxicity |  |  |  |  | >58±13 |  |  | > 50000 nM | 900 ± 200 nM | > 50000 nM |  |
